Data reported in PubChem BioAssay AID250 (DTP/NCI, 2004).
Values joined by “and” are separate entries in the source; they are usually repeats but may differ in a detail not shown here. Equal entries are not always repeated. Toxic doses and inconclusive results are not listed.

Tested on: BDF1 mice, L1210 leukemia sc, survival T/C
Experiment: NCI In Vivo Anticancer Drug Screen. Data for tumor model L1210 Leukemia (subcutaneous) in B6D2F1 (BDF1) mice
Conditions: higher = longer survival
Summary of the method: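 Transplantable tumor-bearing mice; survival or tumor size recorded; result = T/C, treated vs vehicle control.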

[1] = endpoint: median survival time, dose: 108.0 mg/kg/injection, schedule: Q01DX Z (sc), vehicle: methylcellulose (MC)

C=CCNC(=O)NCC=C
T/C (endpoint: median survival time, dose: 100.0 mg/kg/injection, schedule: Q01DX001 (ip), vehicle: saline): 105 % of control | T/C (endpoint: median survival time, dose: 100.0 mg/kg/injection, schedule: Q01DX001 (sc), vehicle: saline): 111 % of control | T/C (endpoint: median survival time, dose: 100.0 mg/kg/injection, schedule: Q04DX003 (ip), vehicle: saline): 111 % of control | T/C (endpoint: median survival time, dose: 100.0 mg/kg/injection, schedule: Q04DX003 (sc), vehicle: saline): 111 % of control | T/C (endpoint: median survival time, dose: 200.0 mg/kg/injection, schedule: Q01DX001 (ip), vehicle: saline): 111 % of control | T/C (endpoint: median survival time, dose: 200.0 mg/kg/injection, schedule: Q01DX001 (sc), vehicle: saline): 111 % of control | T/C (endpoint: median survival time, dose: 200.0 mg/kg/injection, schedule: Q01DX009 (ip), vehicle: saline): 150 % of control | T/C (endpoint: median survival time, dose: 200.0 mg/kg/injection, schedule: Q04DX003 (ip), vehicle: saline): 122 % of control

CN(Cc1cnc2nc(N[Si](C)(C)C)nc(N[Si](C)(C)C)c2n1)c1ccc(C(=O)NC(CCC(=O)O[Si](C)(C)C)C(=O)O[Si](C)(C)C)cc1 (stereo unspecified)
T/C (endpoint: mean survival time, dose: 1.0 mg/kg/injection, schedule: Q01DX009 (ip), vehicle: Klucel (hydroxypropylcellulose) (HPC)): 150 % of control | T/C (endpoint: mean survival time, dose: 2.0 mg/kg/injection, schedule: Q01DX009 (ip), vehicle: Klucel (hydroxypropylcellulose) (HPC)): 169 % of control | T/C (endpoint: mean survival time, dose: 4.0 mg/kg/injection, schedule: Q01DX009 (ip), vehicle: Klucel (hydroxypropylcellulose) (HPC)): 176 % of control | T/C (endpoint: mean survival time, dose: 8.0 mg/kg/injection, schedule: Q01DX009 (ip), vehicle: Klucel (hydroxypropylcellulose) (HPC)): 169 % of control | T/C (endpoint: mean survival time, dose: 8.0 mg/kg/injection, schedule: Q04DX003 (ip), vehicle: Klucel (hydroxypropylcellulose) (HPC)): 156 % of control | T/C (endpoint: mean survival time, dose: 16.0 mg/kg/injection, schedule: Q01DX009 (ip), vehicle: Klucel (hydroxypropylcellulose) (HPC)): 119 % of control | T/C (endpoint: mean survival time, dose: 32.0 mg/kg/injection, schedule: Q04DX003 (ip), vehicle: Klucel (hydroxypropylcellulose) (HPC)): 160 % of control | T/C (endpoint: mean survival time, dose: 64.0 mg/kg/injection, schedule: Q04DX003 (ip), vehicle: Klucel (hydroxypropylcellulose) (HPC)): 160 % of control

O=C1CN(CCN2CC(=O)NC(=O)C2)CC(=O)N1
T/C (endpoint: median survival time, dose: 8.4 mg/kg/injection, schedule: Q03HX024 (sc), vehicle: Klucel (hydroxypropylcellulose) (HPC)): 160 % of control | T/C (endpoint: median survival time, dose: 12.5 mg/kg/injection, schedule: Q01DX009 (ip), vehicle: steriod suspending solution): 115 % of control | T/C (endpoint: median survival time, dose: 12.5 mg/kg/injection, schedule: Q01DX009 (sc), vehicle: steriod suspending solution): 110 % of control | T/C (endpoint: median survival time, dose: 23.0 mg/kg/injection, schedule: Q03HX024 (sc), vehicle: Klucel (hydroxypropylcellulose) (HPC)): 165 % of control | T/C (endpoint: median survival time, dose: 25.0 mg/kg/injection, schedule: Q01DX009 (ip), vehicle: steriod suspending solution): 120 % of control | T/C (endpoint: median survival time, dose: 25.0 mg/kg/injection, schedule: Q01DX009 (sc), vehicle: steriod suspending solution): 100 % of control | T/C (endpoint: median survival time, dose: 39.0 mg/kg/injection, schedule: Q03HX024 (sc), vehicle: Klucel (hydroxypropylcellulose) (HPC)): 120 % of control | T/C (endpoint: median survival time, dose: 65.0 mg/kg/injection, schedule: Q03HX024 (sc), vehicle: Klucel (hydroxypropylcellulose) (HPC)): 120 % of control | T/C (endpoint: median survival time, dose: 100.0 mg/kg/injection, schedule: Q01DX009 (ip), vehicle: steriod suspending solution): 165 % of control | T/C (endpoint: median survival time, dose: 100.0 mg/kg/injection, schedule: Q01DX009 (sc), vehicle: steriod suspending solution): 105 % of control and 120 % of control | T/C (endpoint: median survival time, dose: 100.0 mg/kg/injection, schedule: Q04DX003 (ip), vehicle: steriod suspending solution): 105 % of control | T/C (endpoint: median survival time, dose: 100.0 mg/kg/injection, schedule: Q04DX003 (sc), vehicle: steriod suspending solution): 100 % of control and 110 % of control | T/C (endpoint: median survival time, dose: 200.0 mg/kg/injection, schedule: Q01DX009 (ip), vehicle: steriod suspending solution): 100 % of control | T/C (endpoint: median survival time, dose: 200.0 mg/kg/injection, schedule: Q01DX009 (sc), vehicle: steriod suspending solution): 90 % of control | T/C (endpoint: median survival time, dose: 200.0 mg/kg/injection, schedule: Q04DX003 (ip), vehicle: steriod suspending solution): 100 % of control | T/C (endpoint: median survival time, dose: 200.0 mg/kg/injection, schedule: Q04DX003 (sc), vehicle: steriod suspending solution): 105 % of control and 115 % of control | T/C (endpoint: median survival time, dose: 300.0 mg/kg/injection, schedule: Q01DX009 (sc), vehicle: Klucel (hydroxypropylcellulose) (HPC)): 120 % of control | T/C (endpoint: median survival time, dose: 400.0 mg/kg/injection, schedule: Q04DX003 (sc), vehicle: steriod suspending solution): 100 % of control | T/C (endpoint: median survival time, dose: 500.0 mg/kg/injection, schedule: Q01DX009 (sc), vehicle: Klucel (hydroxypropylcellulose) (HPC)): 120 % of control | T/C (endpoint: median survival time, dose: 800.0 mg/kg/injection, schedule: Q04DX003 (sc), vehicle: steriod suspending solution): 100 % of control and 120 % of control

S=P(N1CCCCCC1)(N1CC1)N1CC1
T/C (endpoint: median survival time, dose: 4.7 mg/kg/injection, schedule: Q01DX Z (sc), vehicle: saline): 100 % of control | T/C (endpoint: median survival time, dose: 7.8 mg/kg/injection, schedule: Q01DX Z (sc), vehicle: saline): 111 % of control | T/C (endpoint: median survival time, dose: 8.4 mg/kg/injection, schedule: Q01DX Z (sc), vehicle: saline): 111 % of control | T/C (endpoint: median survival time, dose: 13.0 mg/kg/injection, schedule: Q01DX Z (sc), vehicle: saline): 100 % of control | T/C (endpoint: median survival time, dose: 14.0 mg/kg/injection, schedule: Q01DX Z (sc), vehicle: saline): 111 % of control | T/C (endpoint: median survival time, dose: 21.6 mg/kg/injection, schedule: Q01DX Z (sc), vehicle: saline): 111 % of control | T/C (endpoint: median survival time, dose: 23.0 mg/kg/injection, schedule: Q01DX Z (sc), vehicle: saline): 111 % of control | T/C (endpoint: median survival time, dose: 36.0 mg/kg/injection, schedule: Q01DX Z (sc), vehicle: saline): 116 % of control | T/C (endpoint: median survival time, dose: 39.0 mg/kg/injection, schedule: Q01DX Z (sc), vehicle: saline): 122 % of control | T/C (endpoint: median survival time, dose: 60.0 mg/kg/injection, schedule: Q01DX Z (sc), vehicle: saline): 166 % of control | T/C (endpoint: median survival time, dose: 65.0 mg/kg/injection, schedule: Q01DX Z (sc), vehicle: saline): 116 % of control | T/C (endpoint: median survival time, dose: 100.0 mg/kg/injection, schedule: Q01DX Z (sc), vehicle: saline): 161 % of control | T/C (endpoint: median survival time, dose: 108.0 mg/kg/injection, schedule: Q01DX Z (sc), vehicle: saline): 155 % of control

O=c1nc2[nH]c(=O)[nH]c(=O)c2n[nH]1
T/C (endpoint: median survival time, dose: 10.0 mg/kg/injection, schedule: Q01DX Z (sc), vehicle: saline): 100 % of control | T/C (endpoint: median survival time, dose: 28.0 mg/kg/injection, schedule: Q01DX Z (sc), vehicle: saline): 100 % of control | T/C (endpoint: median survival time, dose: 47.0 mg/kg/injection, schedule: Q01DX Z (sc), vehicle: saline): 100 % of control | T/C (endpoint: median survival time, dose: 78.0 mg/kg/injection, schedule: Q01DX Z (sc), vehicle: saline): 100 % of control

CNNCc1ccc(C(=O)NC(C)C)cc1
T/C (endpoint: median survival time, dose: 65.0 mg/kg/injection, schedule: Q01DX009 (sc), vehicle: saline): 116 % of control and 122 % of control | T/C (endpoint: median survival time, dose: 65.0 mg/kg/injection, schedule: Q01DX014 (sc), vehicle: saline): 119 % of control and 122 % of control | T/C (endpoint: median survival time, dose: 65.0 mg/kg/injection, schedule: Q01DX015 (sc), vehicle: saline): 122 % of control | T/C (endpoint: median survival time, dose: 108.0 mg/kg/injection, schedule: Q01DX014 (sc), vehicle: saline): 111 % of control | T/C (endpoint: median survival time, dose: 108.0 mg/kg/injection, schedule: Q01DX015 (sc), vehicle: saline): 122 % of control and 123 % of control | T/C (endpoint: median survival time, dose: 180.0 mg/kg/injection, schedule: Q01DX015 (sc), vehicle: saline): 150 % of control | T/C (endpoint: median survival time, dose: 300.0 mg/kg/injection, schedule: Q01DX015 (sc), vehicle: saline): 163 % of control and 166 % of control | T/C (endpoint: median survival time, dose: 500.0 mg/kg/injection, schedule: Q01DX014 (sc), vehicle: saline): 122 % of control | T/C (endpoint: median survival time, dose: 500.0 mg/kg/injection, schedule: Q01DX015 (sc), vehicle: saline): 116 % of control and 117 % of control

O=C(O)CS
T/C (endpoint: median survival time, dose: 39.0 mg/kg/injection, schedule: Q01DX Z (sc), vehicle: methylcellulose (MC)): 100 % of control | T/C (endpoint: median survival time, dose: 65.0 mg/kg/injection, schedule: Q01DX Z (sc), vehicle: methylcellulose (MC)): 100 % of control | T/C [1]: 100 % of control

CCc1nc(N)nc(N)c1-c1ccc(Cl)cc1
T/C [1]: 118 % of control
